Positions of bridges follow the written chain, without caps; N, C: chain ends. Residues, ends and D or L forms follow the SMILES beside them.
Molecular target: Melanocortin receptor 4 (Mus musculus, UniProt P56450)
Assay: Antagonist activity against mouse melanocortin-4 receptor (MC4R) using Schild analysis
Type: functional
Details: for Kb: read-out: pA2 (converted)

Melanocortin receptor 4, sequence (P56450 whole entry): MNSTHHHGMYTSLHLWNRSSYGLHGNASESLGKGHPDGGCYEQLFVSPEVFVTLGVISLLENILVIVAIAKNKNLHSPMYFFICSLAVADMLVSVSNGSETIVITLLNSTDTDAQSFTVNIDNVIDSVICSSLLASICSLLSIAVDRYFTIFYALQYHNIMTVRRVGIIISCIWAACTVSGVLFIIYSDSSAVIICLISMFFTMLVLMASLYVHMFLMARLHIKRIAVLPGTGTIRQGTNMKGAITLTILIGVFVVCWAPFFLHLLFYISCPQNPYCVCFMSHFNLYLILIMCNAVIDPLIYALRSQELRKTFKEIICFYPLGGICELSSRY

Row | Structure (SMILES) | pA2 | Kb [nM]
1 | C[C@@H]1NC(=O)[C@H](CC(N)=O)NC(=O)[C@H](Cc2ccccc2)NC(=O)[C@H](Cc2ccccc2)NC(=O)[C@H](CCCN=C(N)N)NC(=O)CC[C@H](NC(=O)[C@@H](N)Cc2ccc(O)cc2)C(=O)NC[C@@H](C(=O)N[C@@H](Cc2ccc(O)cc2)C(N)=O)NC(=O)[C@H](Cc2ccccc2)NC1=O | 6.98 | –
2 | C[C@@H]1NC(=O)[C@H](CC(N)=O)NC(=O)[C@H](Cc2ccccc2)NC(=O)[C@H](Cc2ccccc2)NC(=O)[C@H](CCCNC(=N)N)NC(=O)[C@@H](NC(=O)[C@@H](N)Cc2ccc(O)cc2)CC(=O)NC[C@@H](C(=O)N[C@@H](Cc2ccc(O)cc2)C(N)=O)NC(=O)[C@H](Cc2ccccc2)NC1=O | – | 479
3 | C[C@@H]1NC(=O)[C@H](CC(N)=O)NC(=O)[C@H](Cc2ccccc2)NC(=O)[C@H](Cc2ccccc2)NC(=O)[C@H](CCCNC(=N)N)NC(=O)[C@@H](NC(=O)[C@@H](N)Cc2ccc(O)cc2)CSSC[C@@H](C(=O)N[C@@H](Cc2ccc(O)cc2)C(N)=O)NC(=O)[C@H](Cc2ccccc2)NC1=O (H-YCRFFNAFCY-NH2; disulfide 2-9) | – | 155

From ChEMBL document CHEMBL1134285, “Novel agouti-related-protein-based melanocortin-1 receptor antagonist” (J Med Chem, 2001)
